Reference: PMC10897196, “Structure–activity characteristics of phenylalanine analogs selectively transported by L-type amino acid transporter 1 (LAT1)” (Scientific Reports, 2024)
Like-named read-outs stand apart in the source and are kept apart here.

Tests used:
LAT1 = test system: LAT1; set-up: method as in PMID 1559223; details: in situ brain perfusion; cited from earlier work
human LAT2 [1] = target: T1, human LAT2 (Homo sapiens, UniProt Q9UHI5); test: Efflux of pre-loaded L-[14C]alanine from HEK293-hLAT2 cells induced by extracellular compounds; type: cell-based; details: 1 min
T1 construct: expressed in transfected cells
T1 sequence (Q9UHI5 1-535): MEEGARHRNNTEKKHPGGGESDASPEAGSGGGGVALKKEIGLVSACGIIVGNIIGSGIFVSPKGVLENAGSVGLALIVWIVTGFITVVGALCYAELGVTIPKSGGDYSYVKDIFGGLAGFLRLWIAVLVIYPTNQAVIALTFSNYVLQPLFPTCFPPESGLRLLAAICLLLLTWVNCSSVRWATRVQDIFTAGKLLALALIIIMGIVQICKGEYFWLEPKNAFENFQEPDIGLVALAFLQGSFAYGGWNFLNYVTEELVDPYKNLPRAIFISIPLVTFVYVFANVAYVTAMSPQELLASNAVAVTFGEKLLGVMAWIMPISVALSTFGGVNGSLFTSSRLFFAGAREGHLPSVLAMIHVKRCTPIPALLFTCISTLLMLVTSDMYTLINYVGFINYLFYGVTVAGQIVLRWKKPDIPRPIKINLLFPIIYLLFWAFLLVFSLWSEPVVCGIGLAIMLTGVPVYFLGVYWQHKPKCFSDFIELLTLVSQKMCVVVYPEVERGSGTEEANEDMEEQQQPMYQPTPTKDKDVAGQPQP
T1 sequence (P08195 1-529 partner): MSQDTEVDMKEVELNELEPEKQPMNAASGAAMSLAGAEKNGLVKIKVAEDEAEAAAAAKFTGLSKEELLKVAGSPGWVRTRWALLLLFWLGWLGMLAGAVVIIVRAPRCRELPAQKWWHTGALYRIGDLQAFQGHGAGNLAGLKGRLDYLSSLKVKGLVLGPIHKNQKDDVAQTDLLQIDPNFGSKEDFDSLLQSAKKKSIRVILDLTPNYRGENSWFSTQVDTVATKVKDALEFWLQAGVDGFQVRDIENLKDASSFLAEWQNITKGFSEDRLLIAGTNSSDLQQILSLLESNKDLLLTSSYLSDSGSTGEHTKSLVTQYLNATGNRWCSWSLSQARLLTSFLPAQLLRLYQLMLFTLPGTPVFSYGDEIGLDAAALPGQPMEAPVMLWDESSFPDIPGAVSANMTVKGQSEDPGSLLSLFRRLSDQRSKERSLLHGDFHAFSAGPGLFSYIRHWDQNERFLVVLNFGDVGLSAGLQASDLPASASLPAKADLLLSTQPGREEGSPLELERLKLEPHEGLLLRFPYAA
Procedure: We evaluated the efflux of pre-loaded L-[^14C]leucine from LAT1 and pre-loaded L-[^14C]alanine from LAT2 induced by extracellularly applied compounds.
Efflux experiments were performed as described previously. Cells cultured 48 h were pre-loaded with 5 μM L-[^14C]leucine or L-[^14C]alanine for 10 min at 37 °C. The cells were then washed, and the efflux was induced by incubating cells for 1 min in either the absence or presence of non-radiolabeled test compounds at indicated concentrations. The efflux time of 1 min fell within the linear range of time-dependent substrate efflux mediated by LAT1 and LAT2 (Supplementary Fig. S2). Following incubation, the medium was collected and radioactivity was measured in both the medium and the cells. Efflux was quantified as the percentage of radioactivity released into the medium, calculated using the formula: radioactivity of medium/(radioactivity of medium + radioactivity of cells) × 100%.
The kinetic parameters for the efflux of L-[^14C]leucine or L-[^14C]alanine induced by various concentrations of extracellularly-applied test compounds were analyzed. The baseline efflux values—those obtained in the absence of test compounds—were subtracted from the values measured in the presence of the compounds. The resultant data were fitted to Michaelis–Menten kinetics to determine the Km and Vmax by nonlinear regression analysis using “enzyme kinetics-velocity as a function of substrate” module within GraphPad Prism software.

human LAT2 [2] = target: T1, human LAT2; test: Inhibition of L-[14C]alanine uptake in HEK293-hLAT2 cells; type: cell-based
Source text: In this study, we used the HEK293 cells stably expressing human LAT1 or human LAT2, which form a heterodimeric complex with endogenous 4F2hc (CD98hc), required for plasma membrane localization. We first explored the impact of halogen group positioning in the benzene ring of Phe (Fig. 1) on its interaction with LAT1 and LAT2. […] We conducted inhibition experiments to measure the uptake of L-[^14C]leucine by LAT1 and L-[^14C]alanine by LAT2 in the presence or absence of Phe derivatives with an iodo group at position 2, 3, or 4 in the benzene ring.
The inhibition experiments were performed as described previously. HEK293-hLAT1 (1.5 × 10^5 cells/well) or HEK293-hLAT2 (2 × 10^5 cells/well) cells were plated onto poly-D-lysine-coated 24-well plates (Corning, New York, USA). Following a 2-day culture period, the uptake of 1 μM L-[^14C]leucine or L-[^14C]alanine was measured for 1 min in the absence or presence of non-radiolabeled test compounds at concentrations of 10, 30, and 100 μM. Radioactivity was quantified using a β-scintillation counter (LSC-3100; Aloka, Tokyo, Japan), and protein concentrations were determined with a Micro BCA Protein Assay Kit (Thermo Fisher Scientific, Rockford, IL). To calculate Ki values, the concentration-dependent uptake of L-[^14C]leucine or L-[^14C]alanine was analyzed in the presence and absence of test compounds[49]. The data were plotted against substrate concentration and fitted to Michaelis–Menten kinetics. Ki values were derived using nonlinear regression analysis with the enzyme kinetics inhibition module in GraphPad Prism software (Version 10.0.2; GraphPad Software Inc., San Diego, CA, USA).

N[C@]1(C(=O)O)CCc2ccccc2C1 [bicyclic-Phe, (R)-2-amino-1,2,3,4-tetrahydro-2-naphthoic acid]
Vmax of BBB transport relative to melphalan (LAT1): approximately seven times higher | Vmax of efflux (% radioactivity/min) (human LAT2 [1]; LAT2, L-[14C]alanine efflux, mean ± S.E.M., n = 3): 10.05 ± 0.27 % radioactivity/min | LAT2-mediated L-[14C]alanine efflux induced (in words) (human LAT2 [1]; compounds at 10, 30, 100 μM): not efficiently transported by LAT2 | Inhibition of LAT2-mediated L-[14C]alanine uptake (in words, rank order) (human LAT2 [2]; 1 μM L-[14C]alanine, 1 min, compounds at 10, 30, 100 μM): minimal inhibition | Ki (human LAT2 [2]; L-[14C]alanine uptake, HEK293-hLAT2, mean ± S.E.M., n = 3–4, read-out: Ki (μM) LAT2): 3750 ± 740 µM | Ki (human LAT2 [2]; as quoted in the discussion, read-out: Ki value for LAT2): ~3800 µM
